# Target: Induced myeloid leukemia cell differentiation protein Mcl-1 (Homo sapiens) (UniProt Q07820)
# Assay: blockers of MCL1–BIM BH3 interaction – biochemical, fluorescence polarization, assay provider data, round 3, late-stage follow-up (AID 602165)
# Settings: GST-MCL1 / FITC-BIM-BH3 peptide fluorescence polarization
# Induced myeloid leukemia cell differentiation protein Mcl-1 (Homo sapiens), sequence (Q07820 whole entry, looked up): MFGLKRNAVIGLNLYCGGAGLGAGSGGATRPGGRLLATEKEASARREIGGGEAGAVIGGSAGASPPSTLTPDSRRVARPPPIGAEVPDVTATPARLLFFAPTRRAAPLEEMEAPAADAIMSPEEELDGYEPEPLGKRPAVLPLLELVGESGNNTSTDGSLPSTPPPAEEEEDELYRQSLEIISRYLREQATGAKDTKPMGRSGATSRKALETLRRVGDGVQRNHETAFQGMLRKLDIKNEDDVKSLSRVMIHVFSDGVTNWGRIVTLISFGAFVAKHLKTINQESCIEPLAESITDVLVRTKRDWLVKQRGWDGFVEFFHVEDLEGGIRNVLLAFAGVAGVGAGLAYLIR
row,Compound,IC50 [nM]
1,CN1CCN(C(c2ccc(F)cc2)c2ccc3cccnc3c2O)CC1 (stereo not drawn),600
2,OCCN1CCN(C(c2cccs2)c2ccc3cccnc3c2O)CC1 (stereo not drawn),3300
3,CCN1CCN(C(c2cccs2)c2ccc3cccnc3c2O)CC1 (stereo not drawn),1600
4,Oc1c(C(c2cccs2)N2CCN(c3ccccn3)CC2)ccc2cccnc12 (stereo not drawn),500
5,Oc1c(C(c2cccs2)N2CCCCC2)ccc2cccnc12 (stereo not drawn),2500

# Second part, the compound after the results:
row,IC50 [nM],Compound
1,600,Oc1c(C(Nc2ccccn2)c2cccs2)ccc2cccnc12 (stereo not drawn)
2,400,Cc1ccnc(NC(c2cccs2)c2ccc3cccnc3c2O)c1 (stereo not drawn)
3,1300,CC(C)Oc1ccc(C(Nc2ccccn2)c2ccc3cccnc3c2O)cc1 (stereo not drawn)

# — PubChem BioAssay AID602165 (The Scripps Research Institute Molecular Screening Center, 2012)
